Here are results for 3 compounds from patent US8067382B2, “Anthelmintic composition” (Merial Limited, priority 2002, dated 2011).

A short description of series [1]: Stability trial of Formulation 1 stored at ambient for 11 months, HPLC assay of actives. The class given is physicochemical. As for the experimental part: A stability trial was conducted to ensure that the triclabendazole solution was stable. A formulation made as described in example 1 (“Formulation 1”) was stored at ambient for 11 months. At the conclusion of the storage period samples were tested for total abamectin and triclabendazole levels. [table]

The next series concerns liver flukes. The following applies: background statement; cited from earlier work.
The conditions of series [2]: background statement; cited from earlier work.

For Abamectin, in series [1], the “Loss in activity after storage” value was “no loss in activity”.

Consider `CCCSc1ccc2nc(NC(=O)OC)[nH]c2c1` [Albendazole], for which the “Efficacy against liver flukes by life cycle stage” value with liver flukes was “only effective against adult flukes”.

For `CSc1nc2cc(Cl)c(Oc3cccc(Cl)c3Cl)cc2[nH]1` [triclabendazole, 5-Chloro-6-(2,3-dichlorophenoxy)-2-methylthio-1H-benzimidazole], in series [1], the “Loss in activity after storage” value is on record as “no loss in activity” and the “Physical stability of the solution after storage” value is “remained in solution”. In addition, the “Efficacy against liver flukes by life cycle stage” value with liver flukes is on record as “highly effective against liver flukes at all stages of their life cycle”. In series [2], the Solubility entry is “highly insoluble”.
